Reference: patent US20140348819A1, “Methods of Treating Cancer” (Dana-Farber Cancer Institute, Inc., priority 2011, published 2014)

Experiments:
[1] = system: six V600E BRAF melanoma cell lines; experiment: Screening of recombinant RTK ligands for ability to confer resistance to BRAFi (PLX4720) or MEKi (PD184352) (Table 4); format: cell-based, human; design: ability of recombinant RTK ligand to confer resistance / ability of recombinant RTK ligand to confer resistance (screening value): scale not given here
Procedure, shortened: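 Resistance to BRAFi (PLX4720) or MEKi (PD184352) was tested in six V600E BRAF melanoma lines given one of 22 recombinant RTK ligands. For a subset of RTKs, activation was checked by high-throughput tyrosine kinase phosphorylation profiling and western blot.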

pERK/pAKT = experiment: High-throughput western analysis of pERK/pAKT re-activation by RTK ligands under BRAFi/MEKi; format: cell-based, human; conditions: under BRAFi (PLX4720); after 1 hour of cytokine treatment; six V600E BRAF melanoma cell lines
Method: FIG. 23B is a western blot showing the activation of AKT (phosphorylated AKT, S473) after 1 hour and 24 hours after treatment with HGF, IGF-1 (IGF), and Insulin (INS) in the presence of BRAFi (PLX4720, 2 μM). FIG. 23C is a western blot showing the effect of HGF (25 ng/mL) on MAPK and PI3K/AKT pathway activation (pRAF1, pMEK, pERK, pAKT and pMET) in melanoma cell lines after 24 hours of treatment with 2 μM BRAFi (PLX4720) or 2 μM MEKi (PD184352).
To understand why, of all the RTKs tested, only HGF could induce such a unique primary resistance phenotype, a high-throughput western analysis was used to test the ability of all 22 RTK ligands to re-activate pERK/pAKT under BRAFi (PLX4720) treatment in six V600E BRAF melanoma cell lines. […] However, whereas the activation of both ERK and AKT by HGF under PLX4720 treatment was long lasting, the activation of either ERK or AKT by the above cytokines was only transient and thus could not confer resistance to the melanoma cell lines.

insulin: RTK ligand (INSR), cytokine tested
ability of recombinant RTK ligand to confer resistance ([1]; A2058, PD184352 - 1 uM, ligand 156.25 ng/ml): 0.98
ability of recombinant RTK ligand to confer resistance ([1]; A2058, PD184352 - 1 uM, ligand 625 ng/ml): 0.99
ability of recombinant RTK ligand to confer resistance ([1]; A2058, PD184352 - 1 uM, ligand 2500 ng/ml): 1.14
ability of recombinant RTK ligand to confer resistance ([1]; A2058, PD184352 - 1 uM, ligand 10000 ng/ml): 1.03
ability of recombinant RTK ligand to confer resistance ([1]; A2058, PD184352 - 1 uM, ligand 40000 ng/ml): 1.06
ability of recombinant RTK ligand to confer resistance ([1]; A2058, PLX4720 - 2 uM, ligand 156.25 ng/ml): 0.98
ability of recombinant RTK ligand to confer resistance ([1]; A2058, PLX4720 - 2 uM, ligand 625 ng/ml): 0.96
ability of recombinant RTK ligand to confer resistance ([1]; A2058, PLX4720 - 2 uM, ligand 2500 ng/ml): 1.12
ability of recombinant RTK ligand to confer resistance ([1]; A2058, PLX4720 - 2 uM, ligand 10000 ng/ml): 1.02
ability of recombinant RTK ligand to confer resistance ([1]; A2058, PLX4720 - 2 uM, ligand 40000 ng/ml): 1.11
ability of recombinant RTK ligand to confer resistance ([1]; C32, PD184352 - 1 uM, ligand 156.25 ng/ml): 1.09
ability of recombinant RTK ligand to confer resistance ([1]; C32, PD184352 - 1 uM, ligand 625 ng/ml): 1.08
ability of recombinant RTK ligand to confer resistance ([1]; C32, PD184352 - 1 uM, ligand 2500 ng/ml): 1.20
ability of recombinant RTK ligand to confer resistance ([1]; C32, PD184352 - 1 uM, ligand 10000 ng/ml): 1.08
ability of recombinant RTK ligand to confer resistance ([1]; C32, PD184352 - 1 uM, ligand 40000 ng/ml): 1.04
ability of recombinant RTK ligand to confer resistance ([1]; C32, PLX4720 - 2 uM, ligand 156.25 ng/ml): 1.14
ability of recombinant RTK ligand to confer resistance ([1]; C32, PLX4720 - 2 uM, ligand 625 ng/ml): 1.05
ability of recombinant RTK ligand to confer resistance ([1]; C32, PLX4720 - 2 uM, ligand 2500 ng/ml): 1.20
ability of recombinant RTK ligand to confer resistance ([1]; C32, PLX4720 - 2 uM, ligand 10000 ng/ml): 1.02
ability of recombinant RTK ligand to confer resistance ([1]; C32, PLX4720 - 2 uM, ligand 40000 ng/ml): 1.04
ability of recombinant RTK ligand to confer resistance ([1]; Colo 829, PD184352 - 1 uM, ligand 156.25 ng/ml): 0.91
ability of recombinant RTK ligand to confer resistance ([1]; Colo 829, PD184352 - 1 uM, ligand 625 ng/ml): 0.98
ability of recombinant RTK ligand to confer resistance ([1]; Colo 829, PD184352 - 1 uM, ligand 2500 ng/ml): 0.98
ability of recombinant RTK ligand to confer resistance ([1]; Colo 829, PD184352 - 1 uM, ligand 10000 ng/ml): 1.02
ability of recombinant RTK ligand to confer resistance ([1]; Colo 829, PD184352 - 1 uM, ligand 40000 ng/ml): 1.02
ability of recombinant RTK ligand to confer resistance ([1]; Colo 829, PLX4720 - 2 uM, ligand 156.25 ng/ml): 0.91
ability of recombinant RTK ligand to confer resistance ([1]; Colo 829, PLX4720 - 2 uM, ligand 625 ng/ml): 0.93
ability of recombinant RTK ligand to confer resistance ([1]; Colo 829, PLX4720 - 2 uM, ligand 2500 ng/ml): 0.97
ability of recombinant RTK ligand to confer resistance ([1]; Colo 829, PLX4720 - 2 uM, ligand 10000 ng/ml): 1.01
ability of recombinant RTK ligand to confer resistance ([1]; Colo 829, PLX4720 - 2 uM, ligand 40000 ng/ml): 1.00
ability of recombinant RTK ligand to confer resistance ([1]; G-361, PD184352 - 1 uM, ligand 156.25 ng/ml): 0.98
ability of recombinant RTK ligand to confer resistance ([1]; G-361, PD184352 - 1 uM, ligand 625 ng/ml): 0.91
ability of recombinant RTK ligand to confer resistance ([1]; G-361, PD184352 - 1 uM, ligand 2500 ng/ml): 1.01
ability of recombinant RTK ligand to confer resistance ([1]; G-361, PD184352 - 1 uM, ligand 10000 ng/ml): 0.98
ability of recombinant RTK ligand to confer resistance ([1]; G-361, PD184352 - 1 uM, ligand 40000 ng/ml): 0.97
ability of recombinant RTK ligand to confer resistance ([1]; G-361, PLX4720 - 2 uM, ligand 156.25 ng/ml): 0.92
ability of recombinant RTK ligand to confer resistance ([1]; G-361, PLX4720 - 2 uM, ligand 625 ng/ml): 0.88
ability of recombinant RTK ligand to confer resistance ([1]; G-361, PLX4720 - 2 uM, ligand 2500 ng/ml): 0.98
ability of recombinant RTK ligand to confer resistance ([1]; G-361, PLX4720 - 2 uM, ligand 10000 ng/ml): 0.96
ability of recombinant RTK ligand to confer resistance ([1]; G-361, PLX4720 - 2 uM, ligand 40000 ng/ml): 0.99
ability of recombinant RTK ligand to confer resistance ([1]; SK-MEL-5, PD184352 - 1 uM, ligand 156.25 ng/ml): 1.20
ability of recombinant RTK ligand to confer resistance ([1]; SK-MEL-5, PD184352 - 1 uM, ligand 625 ng/ml): 1.24
ability of recombinant RTK ligand to confer resistance ([1]; SK-MEL-5, PD184352 - 1 uM, ligand 2500 ng/ml): 1.30
ability of recombinant RTK ligand to confer resistance ([1]; SK-MEL-5, PD184352 - 1 uM, ligand 10000 ng/ml): 1.28
ability of recombinant RTK ligand to confer resistance ([1]; SK-MEL-5, PD184352 - 1 uM, ligand 40000 ng/ml): 1.66
ability of recombinant RTK ligand to confer resistance ([1]; SK-MEL-5, PLX4720 - 2 uM, ligand 156.25 ng/ml): 1.10
ability of recombinant RTK ligand to confer resistance ([1]; SK-MEL-5, PLX4720 - 2 uM, ligand 625 ng/ml): 1.18
ability of recombinant RTK ligand to confer resistance ([1]; SK-MEL-5, PLX4720 - 2 uM, ligand 2500 ng/ml): 1.27
ability of recombinant RTK ligand to confer resistance ([1]; SK-MEL-5, PLX4720 - 2 uM, ligand 10000 ng/ml): 1.26
ability of recombinant RTK ligand to confer resistance ([1]; SK-MEL-5, PLX4720 - 2 uM, ligand 40000 ng/ml): 1.43
ability of recombinant RTK ligand to confer resistance ([1]; SK-MEL-28, PD184352 - 1 uM, ligand 156.25 ng/ml): 1.01
ability of recombinant RTK ligand to confer resistance ([1]; SK-MEL-28, PD184352 - 1 uM, ligand 625 ng/ml): 0.97
ability of recombinant RTK ligand to confer resistance ([1]; SK-MEL-28, PD184352 - 1 uM, ligand 2500 ng/ml): 1.06
ability of recombinant RTK ligand to confer resistance ([1]; SK-MEL-28, PD184352 - 1 uM, ligand 10000 ng/ml): 1.13
ability of recombinant RTK ligand to confer resistance ([1]; SK-MEL-28, PD184352 - 1 uM, ligand 40000 ng/ml): 1.11
ability of recombinant RTK ligand to confer resistance ([1]; SK-MEL-28, PLX4720 - 2 uM, ligand 156.25 ng/ml): 1.02
ability of recombinant RTK ligand to confer resistance ([1]; SK-MEL-28, PLX4720 - 2 uM, ligand 625 ng/ml): 0.95
ability of recombinant RTK ligand to confer resistance ([1]; SK-MEL-28, PLX4720 - 2 uM, ligand 2500 ng/ml): 0.99
ability of recombinant RTK ligand to confer resistance ([1]; SK-MEL-28, PLX4720 - 2 uM, ligand 10000 ng/ml): 1.05
ability of recombinant RTK ligand to confer resistance ([1]; SK-MEL-28, PLX4720 - 2 uM, ligand 40000 ng/ml): 1.05
re-activation of pERK/pAKT (pERK/pAKT): only reactivate AKT
